# Results: ChEMBL document CHEMBL1138700, “3-O-Glutaryl-dihydrobetulin and related monoacyl derivatives as potent anti-HIV agents” (Bioorg Med Chem Lett, 2004)
# Key:
# [1] = tested on: Human immunodeficiency virus 1; assay: Concentration required to inhibit 50% of HIV-1 (human immunodeficiency virus-1) replication; format: functional, organism-based
# [2] = Therapeutic index expressed as ratio of IC50 for 50% toxicity to EC50 for 50% inhibition; format: cell-based; conditions: human, H9 cells; read-out: TI
# H9 = assay: Concentration required to produce 50% toxicity against mock-infected H9 cells; format: functional, cell-based; conditions: Homo sapiens
# [3] = tested on: Human immunodeficiency virus 1; assay: Concentration required to inhibit 50% of HIV-1 (human immunodeficiency virus-1) replication; No suppression at concentrations up to 100 ug/mL.; format: functional, organism-based
Structure (SMILES),EC50 [1] [nM],selectivity ratio [2],IC50 (H9) [nM],EC50 [3]
CC(C)[C@@H]1CC[C@]2(CO)CC[C@]3(C)[C@H](CC[C@@H]4[C@@]5(C)CC[C@H](OC(=O)CCCC(=O)O)C(C)(C)[C@@H]5CC[C@]43C)[C@@H]12,0.02,1.12e+06,23600,
C=C(C)[C@@H]1CC[C@]2(COC(=O)CC(C)(C)CC(=O)O)CC[C@]3(C)[C@H](CC[C@@H]4[C@@]5(C)CC[C@H](OC(=O)CC(C)(C)CC(=O)O)C(C)(C)[C@@H]5CC[C@]43C)[C@@H]12,0.66,21500,,
C=C(C)[C@@H]1CC[C@]2(CO)CC[C@]3(C)[C@H](CC[C@@H]4[C@@]5(C)CC[C@H](OC(=O)COCC(=O)O)C(C)(C)[C@@H]5CC[C@]43C)[C@@H]12,20,> 1820,> 44800,
C=C(C)[C@@H]1CC[C@]2(CO)CC[C@]3(C)[C@H](CC[C@@H]4[C@@]5(C)CC[C@H](OC(=O)CCC(=O)O)C(C)(C)[C@@H]5CC[C@]43C)[C@@H]12,,,26000,No suppression
C=C(C)[C@@H]1CC[C@]2(C(=O)O)CC[C@]3(C)[C@H](CC[C@@H]4[C@@]5(C)CC[C@H](O)C(C)(C)[C@@H]5CC[C@]43C)[C@@H]12 [BETULINIC ACID],1400,9.2,,
CC(C)[C@@H]1CC[C@]2(CO)CC[C@]3(C)[C@H](CC[C@@H]4[C@@]5(C)CC[C@H](OC(=O)CC(C)(C)C(=O)O)C(C)(C)[C@@H]5CC[C@]43C)[C@@H]12,1.7,16200,27000,
Cc1cn([C@H]2C[C@H](N=[N+]=[N-])[C@@H](CO)O2)c(=O)[nH]c1=O [ZIDOVUDINE],6.2,,,
C=C(C)[C@@H]1CC[C@]2(C(=O)O)CC[C@]3(C)[C@H](CC[C@@H]4[C@@]5(C)CC[C@H](OC(=O)CC(C)(C)C(=O)O)C(C)(C)[C@@H]5CC[C@]43C)[C@@H]12 [BEVIRIMAT],< 0.35,> 20000,,
C=C(C)[C@@H]1CC[C@]2(CO)CC[C@]3(C)[C@H](CC[C@@H]4[C@@]5(C)CC[C@H](OC(=O)CCCC(=O)O)C(C)(C)[C@@H]5CC[C@]43C)[C@@H]12,60,670,44400,
CC(C)[C@@H]1CC[C@]2(CO)CC[C@]3(C)[C@H](CC[C@@H]4[C@@]5(C)CC[C@H](OC(=O)CC(C)(C)CC(=O)O)C(C)(C)[C@@H]5CC[C@]43C)[C@@H]12,1.3,19500,25700,
C=C(C)[C@@H]1CC[C@]2(COC(=O)C(C)(C)CC(=O)O)CC[C@]3(C)[C@H](CC[C@@H]4[C@@]5(C)CC[C@H](OC(=O)CC(C)(C)C(=O)O)C(C)(C)[C@@H]5CC[C@]43C)[C@@H]12,0.87,42400,,
C=C(C)[C@@H]1CC[C@]2(CO)CC[C@]3(C)[C@H](CC[C@@H]4[C@@]5(C)CC[C@H](OC(=O)CC(C)(C)CC(=O)O)C(C)(C)[C@@H]5CC[C@]43C)[C@@H]12,4.4,6570,28900,
C=C(C)[C@@H]1CC[C@]2(CO)CC[C@]3(C)[C@H](CC[C@@H]4[C@@]5(C)CC[C@H](OC(=O)CC(C)(C)C(=O)O)C(C)(C)[C@@H]5CC[C@]43C)[C@@H]12,5.6,5970,33500,
